Assay results published in PMC12394895, “Detection and characterisation of ligand-induced conformational changes in acetylcholine binding proteins using biosensors and X-ray crystallography” (RSC Chemical Biology, 2025).

What was measured:
[1] = molecular target: T1, Ls-AChBP (Lymnaea stagnalis, UniProt P58154); assay: GCI biosensor, steady state; format: binding
T1 construct: soluble homopentamer, AChBP pentamer 125 kDa; amine-coupled for SAW and GCI

[2] = molecular target: T1, Ls-AChBP; assay: SAW biosensor, phase signal; format: binding; settings: pH 7.4, 25 °C, 5% DMSO; immobilised protein; unreliable (very rough approximation, steady state not always reached)
Source text: SAW biosensor, phase signal on Ls-AChBP

T1 sequence (P58154 20-229): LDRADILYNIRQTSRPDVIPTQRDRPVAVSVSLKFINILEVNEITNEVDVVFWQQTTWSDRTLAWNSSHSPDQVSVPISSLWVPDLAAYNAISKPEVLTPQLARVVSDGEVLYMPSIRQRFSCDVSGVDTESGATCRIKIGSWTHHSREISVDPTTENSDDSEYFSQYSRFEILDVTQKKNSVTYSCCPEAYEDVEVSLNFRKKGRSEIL

Compound	Kd [1] [µM]	Phase KD [2] [µM]
Cn1ccnc1/C=C/c1ccc(O)c(O)c1 [VUF22430]	1.3	–
CCn1ccnc1-c1cccc(-c2ccccn2)n1 [VUF24234]	5	–
CC(=O)OCC[N+](C)(C)C [acetylcholine]	–	0.61
CN1CCC[C@H]1c1cccnc1 [nicotine]	–	0.035
VUF6105	–	12
